Assays:
Format in all cases: in vivo
Conditions in all cases: after 13 d
corn (Zea mays, ZEAMX) [1] = experiment: Test A pre-emergence, corn
Description: (§1) Seeds of corn (Zea mays, ZEAMX), giant foxtail (Setaria faberi, SETFA), barnyardgrass (Echinochloa crus-galli, ECHCG), ivy-leaved morning glory (Ipomoea hederacea, IPOHE), redroot pigweed (Amaranthus retroflexus, AMARE) and velvetleaf (Abutilon theophrasti, ABUTH) were sown in standard soil in pots. After cultivation for one day under controlled conditions in a glasshouse (at 24/16° C., day/night; 14 h light; 65% humidity), the plants were sprayed with an aqueous spray solution derived from the formulation of the technical active ingredient in acetone/water (50:50) solution containing 0.5% Tween 20 (polyoxyethylene sorbitan monolaurate, CAS RN 9005-64-5) to give a final dose of 15.625, 62.5 or 250 g/ha of test compound.
(§2) The test plants were then grown under controlled conditions in a glasshouse (at 24/16° C., day/night; 14 h light; 65% humidity) and watered twice daily. After 13 d the test was evaluated (100=total damage to plant; 0=no damage to plant).

[2] = tested on: barnyardgrass (Echinochloa crus-galli, ECHCG); experiment: Test A post-emergence, barnyardgrass
Description: as §1, with “IPOHE)),” for “IPOHE),”, “8 d” for “one day”
(§3) The test plants were then grown on under controlled conditions in a glasshouse (at 24/16° C., day/night; 14 h light; 65% humidity) and watered twice daily. After 13 d the test was evaluated (100=total damage to plant; 0=no damage to plant).

[3] = tested on: velvetleaf (Abutilon theophrasti, ABUTH); experiment: Test A post-emergence, velvetleaf
Description: as §1, with “IPOHE)),” for “IPOHE),”, “8 d” for “one day”
as §3

[4] = tested on: barnyardgrass (Echinochloa crus-galli, ECHCG); experiment: Test A pre-emergence, barnyardgrass
Description: as §1, §2

[5] = tested on: velvetleaf (Abutilon theophrasti, ABUTH); experiment: Test A pre-emergence, velvetleaf
Description: as §1, §2

[6] = tested on: redroot pigweed (Amaranthus retroflexus, AMARE); experiment: Test A pre-emergence, redroot pigweed
Description: as §1, §2

[7] = tested on: ivy-leaved morning glory (Ipomoea hederacea, IPOHE); experiment: Test A pre-emergence, ivy-leaved morning glory
Description: as §1, §2

[8] = tested on: redroot pigweed (Amaranthus retroflexus, AMARE); experiment: Test A post-emergence, redroot pigweed
Description: as §1, with “IPOHE)),” for “IPOHE),”, “8 d” for “one day”
as §3

corn (Zea mays, ZEAMX) [9] = experiment: Test A post-emergence, corn
Description: as §1, with “IPOHE)),” for “IPOHE),”, “8 d” for “one day”
as §3

[10] = tested on: giant foxtail (Setaria faberi, SETFA); experiment: Test A pre-emergence, giant foxtail
Description: as §1, §2

[11] = tested on: ivy-leaved morning glory (Ipomoea hederacea, IPOHE); experiment: Test A post-emergence, ivy-leaved morning glory
Description: as §1, with “IPOHE)),” for “IPOHE),”, “8 d” for “one day”
as §3

[12] = tested on: giant foxtail (Setaria faberi, SETFA); experiment: Test A post-emergence, giant foxtail
Description: as §1, with “IPOHE)),” for “IPOHE),”, “8 d” for “one day”
as §3

CCc1ccccc1NC(=O)C1C(=O)N(C)CC1c1cc(C(F)(F)F)n(C)n1 (racemic) [Compound 20]
damage to plant (100=total damage; 0=no damage) ZEAMX (corn (Zea mays, ZEAMX) [1]; Pre-Emergence at 15.625 g/ha): 0 | damage to plant (100=total damage; 0=no damage) ZEAMX (corn (Zea mays, ZEAMX) [1]; Pre-Emergence at 62.5 g/ha): 0 | damage to plant (100=total damage; 0=no damage) ZEAMX (corn (Zea mays, ZEAMX) [1]; Pre-Emergence at 250 g/ha): 20 | damage to plant (100=total damage; 0=no damage) ECHCG ([2]; Post-Emergence at 15.625 g/ha): 20 | damage to plant (100=total damage; 0=no damage) ECHCG ([2]; Post-Emergence at 62.5 g/ha): 60 | damage to plant (100=total damage; 0=no damage) ECHCG ([2]; Post-Emergence at 250 g/ha): 80 | damage to plant (100=total damage; 0=no damage) ABUTH ([3]; Post-Emergence at 15.625 g/ha): 0 | damage to plant (100=total damage; 0=no damage) ABUTH ([3]; Post-Emergence at 62.5 g/ha): 0 | damage to plant (100=total damage; 0=no damage) ABUTH ([3]; Post-Emergence at 250 g/ha): 0 | damage to plant (100=total damage; 0=no damage) ECHCG ([4]; Pre-Emergence at 15.625 g/ha): 50 | damage to plant (100=total damage; 0=no damage) ECHCG ([4]; Pre-Emergence at 62.5 g/ha): 80 | damage to plant (100=total damage; 0=no damage) ECHCG ([4]; Pre-Emergence at 250 g/ha): 90 | damage to plant (100=total damage; 0=no damage) ABUTH ([5]; Pre-Emergence at 15.625 g/ha): 0 | damage to plant (100=total damage; 0=no damage) ABUTH ([5]; Pre-Emergence at 62.5 g/ha): 0 | damage to plant (100=total damage; 0=no damage) ABUTH ([5]; Pre-Emergence at 250 g/ha): 0 | damage to plant (100=total damage; 0=no damage) AMARE ([6]; Pre-Emergence at 15.625 g/ha): 50 | damage to plant (100=total damage; 0=no damage) AMARE ([6]; Pre-Emergence at 62.5 g/ha): 60 | damage to plant (100=total damage; 0=no damage) AMARE ([6]; Pre-Emergence at 250 g/ha): 70 | damage to plant (100=total damage; 0=no damage) IPOHE ([7]; Pre-Emergence at 15.625 g/ha): 0 | damage to plant (100=total damage; 0=no damage) IPOHE ([7]; Pre-Emergence at 62.5 g/ha): 0 | damage to plant (100=total damage; 0=no damage) IPOHE ([7]; Pre-Emergence at 250 g/ha): 0 | damage to plant (100=total damage; 0=no damage) AMARE ([8]; Post-Emergence at 15.625 g/ha): 10 | damage to plant (100=total damage; 0=no damage) AMARE ([8]; Post-Emergence at 62.5 g/ha): 10 | damage to plant (100=total damage; 0=no damage) AMARE ([8]; Post-Emergence at 250 g/ha): 20 | damage to plant (100=total damage; 0=no damage) ZEAMX (corn (Zea mays, ZEAMX) [9]; Post-Emergence at 15.625 g/ha): 0 | damage to plant (100=total damage; 0=no damage) ZEAMX (corn (Zea mays, ZEAMX) [9]; Post-Emergence at 62.5 g/ha): 0 | damage to plant (100=total damage; 0=no damage) ZEAMX (corn (Zea mays, ZEAMX) [9]; Post-Emergence at 250 g/ha): 0 | damage to plant (100=total damage; 0=no damage) SETFA ([10]; Pre-Emergence at 15.625 g/ha): 50 | damage to plant (100=total damage; 0=no damage) SETFA ([10]; Pre-Emergence at 62.5 g/ha): 80 | damage to plant (100=total damage; 0=no damage) SETFA ([10]; Pre-Emergence at 250 g/ha): 90 | damage to plant (100=total damage; 0=no damage) IPOHE ([11]; Post-Emergence at 15.625 g/ha): 0 | damage to plant (100=total damage; 0=no damage) IPOHE ([11]; Post-Emergence at 62.5 g/ha): 0 | damage to plant (100=total damage; 0=no damage) IPOHE ([11]; Post-Emergence at 250 g/ha): 0 | damage to plant (100=total damage; 0=no damage) SETFA ([12]; Post-Emergence at 15.625 g/ha): 30 | damage to plant (100=total damage; 0=no damage) SETFA ([12]; Post-Emergence at 62.5 g/ha): 70 | damage to plant (100=total damage; 0=no damage) SETFA ([12]; Post-Emergence at 250 g/ha): 80

CN1CC(c2cc(C(F)(F)F)n(C)n2)C(C(=O)Nc2cccc(F)c2OC(F)F)C1=O (racemic) [Compound 23]
damage to plant (100=total damage; 0=no damage) ZEAMX (corn (Zea mays, ZEAMX) [1]; Pre-Emergence at 15.625 g/ha): 10 | damage to plant (100=total damage; 0=no damage) ZEAMX (corn (Zea mays, ZEAMX) [1]; Pre-Emergence at 62.5 g/ha): 20 | damage to plant (100=total damage; 0=no damage) ZEAMX (corn (Zea mays, ZEAMX) [1]; Pre-Emergence at 250 g/ha): 40 | damage to plant (100=total damage; 0=no damage) ECHCG ([2]; Post-Emergence at 15.625 g/ha): 50 | damage to plant (100=total damage; 0=no damage) ECHCG ([2]; Post-Emergence at 62.5 g/ha): 80 | damage to plant (100=total damage; 0=no damage) ECHCG ([2]; Post-Emergence at 250 g/ha): 80 | damage to plant (100=total damage; 0=no damage) ABUTH ([3]; Post-Emergence at 15.625 g/ha): 0 | damage to plant (100=total damage; 0=no damage) ABUTH ([3]; Post-Emergence at 62.5 g/ha): 0 | damage to plant (100=total damage; 0=no damage) ABUTH ([3]; Post-Emergence at 250 g/ha): 0 | damage to plant (100=total damage; 0=no damage) ECHCG ([4]; Pre-Emergence at 15.625 g/ha): 70 | damage to plant (100=total damage; 0=no damage) ECHCG ([4]; Pre-Emergence at 62.5 g/ha): 90 | damage to plant (100=total damage; 0=no damage) ECHCG ([4]; Pre-Emergence at 250 g/ha): 90 | damage to plant (100=total damage; 0=no damage) ABUTH ([5]; Pre-Emergence at 15.625 g/ha): 0 | damage to plant (100=total damage; 0=no damage) ABUTH ([5]; Pre-Emergence at 62.5 g/ha): 0 | damage to plant (100=total damage; 0=no damage) ABUTH ([5]; Pre-Emergence at 250 g/ha): 0 | damage to plant (100=total damage; 0=no damage) AMARE ([6]; Pre-Emergence at 15.625 g/ha): 0 | damage to plant (100=total damage; 0=no damage) AMARE ([6]; Pre-Emergence at 62.5 g/ha): 0 | damage to plant (100=total damage; 0=no damage) AMARE ([6]; Pre-Emergence at 250 g/ha): 0 | damage to plant (100=total damage; 0=no damage) IPOHE ([7]; Pre-Emergence at 15.625 g/ha): 0 | damage to plant (100=total damage; 0=no damage) IPOHE ([7]; Pre-Emergence at 62.5 g/ha): 10 | damage to plant (100=total damage; 0=no damage) IPOHE ([7]; Pre-Emergence at 250 g/ha): 20 | damage to plant (100=total damage; 0=no damage) AMARE ([8]; Post-Emergence at 15.625 g/ha): 0 | damage to plant (100=total damage; 0=no damage) AMARE ([8]; Post-Emergence at 62.5 g/ha): 0 | damage to plant (100=total damage; 0=no damage) AMARE ([8]; Post-Emergence at 250 g/ha): 0 | damage to plant (100=total damage; 0=no damage) ZEAMX (corn (Zea mays, ZEAMX) [9]; Post-Emergence at 15.625 g/ha): 0 | damage to plant (100=total damage; 0=no damage) ZEAMX (corn (Zea mays, ZEAMX) [9]; Post-Emergence at 62.5 g/ha): 20 | damage to plant (100=total damage; 0=no damage) ZEAMX (corn (Zea mays, ZEAMX) [9]; Post-Emergence at 250 g/ha): 80 | damage to plant (100=total damage; 0=no damage) SETFA ([10]; Pre-Emergence at 15.625 g/ha): 70 | damage to plant (100=total damage; 0=no damage) SETFA ([10]; Pre-Emergence at 62.5 g/ha): 90 | damage to plant (100=total damage; 0=no damage) SETFA ([10]; Pre-Emergence at 250 g/ha): 90 | damage to plant (100=total damage; 0=no damage) IPOHE ([11]; Post-Emergence at 15.625 g/ha): 0 | damage to plant (100=total damage; 0=no damage) IPOHE ([11]; Post-Emergence at 62.5 g/ha): 10 | damage to plant (100=total damage; 0=no damage) IPOHE ([11]; Post-Emergence at 250 g/ha): 30 | damage to plant (100=total damage; 0=no damage) SETFA ([12]; Post-Emergence at 15.625 g/ha): 60 | damage to plant (100=total damage; 0=no damage) SETFA ([12]; Post-Emergence at 62.5 g/ha): 80 | damage to plant (100=total damage; 0=no damage) SETFA ([12]; Post-Emergence at 250 g/ha): 80

— patent US20220281848A1, “PYRAZOLE-SUBSTITUTED PYRROLIDINONES AS HERBICIDES” (FMC Corporation, priority 2019, published 2022)
